These results are taken from US12104180B2, “Enzyme with acyl transfer function and application thereof” (OCEAN UNIVERSITY OF CHINA, priority 2020, dated 2024).

In data set [1] the test system is Staphylococcus aureus. The note with it: cited from earlier work.
Data set [2] concerns Pyricularia oryzae. The note with it: cited from earlier work.
For data set [3], the system named is Alternaria alternata. The note with it: cited from earlier work.
For data set [4], the system named is methicillin-resistant Staphylococcus aureus. The note with it: cited from earlier work.
In data set [5] the test system is vancomycin-resistant Enterococci. The note with it: cited from earlier work.
The subject of data set [6] is Burkholderia cepacia varieties. The note with it: cited from earlier work.
The subject of data set [7] is B1-F10 murine melanoma cells. The note with it: cited from earlier work.
Data set [8] relates to mammalian herpes simplex virus. The note with it: cited from earlier work.
Data set [9] deals with HIV virus. The note with it: cited from earlier work.
Data set [10] is classed as biochemical. The note with it: 30° C., 2 h, substrate Macrolactin A.

Numbering of substitutions follows the chain as printed. Numbers in names are those of the source.

With Macrolactin T, the “inhibition of Staphylococcus aureus” value in data set [1] is on record as “inhibit”. For the same molecule, the “effect on plant pathogenic fungus Pyricularia oryzae” value in [2] is “obvious effects”. The “effect on plant pathogenic fungus Alternaria alternata” value in data set [3] was “obvious effects”.

Consider `CC1CCCC=CC=CC(O)CC(O)CC=CC=CC(OC(=O)CC(=O)O)CC=CC=CC(=O)O1` (centres unmarked) [7-O-malonyl Macrolactin A], for which the “inhibition of methicillin-resistant Staphylococcus aureus” value in data set [4] was “can sufficiently inhibit”. Besides, in data set [5], the “inhibition of vancomycin-resistant Enterococci” value is “can sufficiently inhibit”. Moreover, the “inhibition of Burkholderia cepacia varieties” value in data set [6] is given as “can sufficiently inhibit”.

For `C[C@@H]1CCC/C=C/C=C/[C@H](O)C[C@@H](O)C/C=C\C=C\[C@@H](O)C/C=C/C=C\C(=O)O1` [Macrolactin A], the “inhibition of B1-F10 murine melanoma cells” value in data set [7] is given as “can inhibit”. In addition, the “inhibition of mammalian herpes simplex virus” value in data set [8] is given as “can inhibit”. Also, the “protection of lymphocytes through inhibiting HIV virus” value in data set [9] is on record as “can protect lymphocytes”.

For the molecule Macrolactin B, in data set [1], the “inhibition of Staphylococcus aureus” value was “inhibit”. Besides, in data set [2], the “effect on plant pathogenic fungus Pyricularia oryzae” value was “obvious effects”. For the same molecule, the “effect on plant pathogenic fungus Alternaria alternata” value in data set [3] is “obvious effects”.

B1: wild-type BmmI protein: acyltransferase BmmI from marine-derived Bacillus methylotrophicus B-9987, sequence SEQ ID NO:1 (protein)
chain: MKQTISNPAFDMKQINALNGHYQTMIDNGDLQCASYMMSRGGEVFAAESLGEFTGGQKEKQTFQLDTIREIGSLTKVFTAVAVMQLVEKGLLDLKMPVKLILPAFDKPGFGEIKILHLLTHTAGLSFELDIQKAEGIDLTNEEEWINYLVSTPLEYGVDEAWNYSRTGFVILGIIISKVTGVSYEQYVTKHIIEALGLERTYFYVPDTLKEEVCVISEHECVQLEKSHHPYFPNKATSGLYSSLRDIWKLAEMFRNKGRLKDKKLLGRKTVEAMLRNQIKPGLPFYFFGAPREEGGFGLGINLWPAGDHYFMTEGTFSHLGMGWCGMFSDPAEDFTYVFFTPISEFHPHAVLTPLNIVWAGIE
modifications: bmmI acyltransferase protease sequence
Take B1: the “acyl donors recognized (side chain length)” value in [10] (FIG. 7) is “malonyl-CoA (C3), succinyl-CoA (C4), glutaryl-CoA (C5) and hexanedioyl-CoA (C6)”.

B2: R166G (protein)
chain: B1 chain with R166G
modifications: mutant protein R166G amino acid sequence
For B2, the “catalytic efficiency towards glutaryl-CoA, hexanedioyl-CoA, acetyl-CoA, and acetyl-CoA” value in [10] (compared with wild type towards malonyl-CoA) is “equivalent to that of the wild-type protein towards malonyl-CoA”.
